According to publication PMC11091117, “A fluorescently-tagged tick kinin neuropeptide triggers peristalsis and labels tick midgut muscles” (Scientific Reports, 2024):
Entries after “also recorded” stand apart in the source; their conditions may differ.

Legend:
[1] = tested on: tick kinin receptor (recombinant R. microplus receptor, CHO-K1 BMLK3 cells); assay: Cellular end-point fluorescence calcium mobilization assay, BMLK3 cells; assay type: cell-based, Rhipicephalus microplus
Text: Three peptides were used in this study. These included: 1) the ligand for the endogenous tick kinin receptor from Rhipicephalus sanguineus, Rhisa-kinin 8 peptide of sequence GTGEDQAFSPWGamide (Rhisa-K-8; RK8; of identical sequence to Rhimi-K-8 in Rhipicephalus microplus)[48], 2) the same peptide but fluorescently labeled at the N-terminus with tetramethylrhodamine (TMR) a red fluorescent dye, designated TMR-Rhisa-K-8 (TMR-RK8), and 3) a labeled peptide synthesized with the scrambled sequence of the kinin ligand, designated TMR-Scrambled. The sequence of TMR-RK8 was TMR-C-GTGEDQAFSPWGamide). The TMR-Scrambled kinin (TMR-C-GTQWGPGFEADSamide) served as a negative control for tissue labeling. All peptides were custom-synthesized and purchased from GenScript (Piscataway, NJ, USA) with a purity of ≥ 95% and the cysteine in bold in both sequences was added to attach the label. Experiments were replicated with independently synthesized batches (4 mg each) of labeled and unlabeled peptides, for reproducibility. Unlabeled RK8 was used as a competitive ligand to verify target-specific binding of the labeled TMR-RK8 (see Ligand Competition Assay). For cell assays, the peptide stock solutions (100 µM) were made in 1% dimethyl sulfoxide (DMSO) in Hank’s balanced salt solution (HBSS, Thermo Fisher, Waltham, USA). For fluorescent cell labeling, peptide working solutions (10 µM) were prepared in HBSS from stock solutions. For assays on the midgut, peptides were solubilized and diluted in a tick physiological saline consisting of 140 mM NaCl, 5 mM KCl, 1 mM MgCl2, 5 mM CaCl2, 4 mM NaHCO3, and 5 mM HEPES, pH 7.2[49].
The tick kinin receptor is stably expressed in the recombinant CHO-K1 cell line designated BMLK3 (Boophilus microplus leucokinin receptor 3) that was constructed and selected as described by Holmes, et al.[47]. The CHO-K1 cells had been obtained from the American Type Culture Collection (ATCC) for transfection with the expression construct. This cell line has been kept in the laboratory since 2003. Cells that were transfected only with an empty plasmid are referred to as “vector-only” (V/O) cells and were used as a negative control. Before all experiments, the BMLK3 cell line or V/O cells were separately cultured in T-75 flasks with selective medium (F-12 K medium containing 10% FBS and 800 μgmL^−1 of G418 sulfate) for one to two passages in a humidified incubator at 37 °C and 5% CO2.
A fluorescence-based intracellular calcium mobilization end-point assay described by Xiong, et al.[50] was used to confirm the activity of the TMR-labeled RK8 peptide on a cell line expressing the tick kinin receptor. For this, BMLK3 and V/O cells were cultured in F-12 K medium (1% FBS and 400 μgmL^−1- of G418 Sulfate). The cells were seeded in a 96-well plate with 20,000 cells per well and incubated overnight at 37 °C and 5% CO2. The next morning, cells were prepared for the assay following the manufacturer’s instructions for the Fluo-8 Calcium Flux Assay Kit – NoWash (Abcam, Cambridge, United Kingdom). The F-12 K medium in the plate was removed by inverting the plate and gently blotting on paper towels. […] The calcium fluorescence signal was detected by a CLARIOstar (BMG LABTECH, Chicago, IL, United States) plate reader set to read at the fluorescence plate-mode with excitation and emission wavelengths of 490 and 525 nm at 29 °C. Calcium responses were read immediately after the addition of 10 µL of either TMR-RK8, unlabeled RK8, or blank solvent (1% DMSO in HBSS). […]

[2] = tested on: vector-only (V/O) CHO-K1 cells; assay: Confocal visualization on live vector-only cells with fluorescently labeled kinin peptide; assay type: binding; settings: 10 µM labeled peptide, 1 min, HBSS, confocal Leica SP8
Text: Three peptides were used in this study. These included: 1) the ligand for the endogenous tick kinin receptor from Rhipicephalus sanguineus, Rhisa-kinin 8 peptide of sequence GTGEDQAFSPWGamide (Rhisa-K-8; RK8; of identical sequence to Rhimi-K-8 in Rhipicephalus microplus)[48], 2) the same peptide but fluorescently labeled at the N-terminus with tetramethylrhodamine (TMR) a red fluorescent dye, designated TMR-Rhisa-K-8 (TMR-RK8), and 3) a labeled peptide synthesized with the scrambled sequence of the kinin ligand, designated TMR-Scrambled. The sequence of TMR-RK8 was TMR-C-GTGEDQAFSPWGamide). The TMR-Scrambled kinin (TMR-C-GTQWGPGFEADSamide) served as a negative control for tissue labeling. […]
The BMLK3 and V/O cells (5000–10,000 cells) were seeded separately in 200 µL selective media onto the two chambers of the cover glass (Lab-Tek Chambered Coverglass, 4.2 cm^2 area, #1.0 German borosilicate glass, sterile, Cat # 155,380, Thermo Fisher Scientific Inc., Walthams, MA) and grown in the incubator overnight at 37 °C and 5% CO2. The next day, cells would be ready for fluorescent labeling: the selective media was replaced with 200 µL HBSS to rinse the cells. […] Images were analyzed and computer-colored using Fiji/ImageJ (National Institutes of Health, Bethesda, MD). […]

Substance: TMR-C-GTGEDQAFSPWGamide [TMR-RK8]
- intracellular calcium fluorescence response / receptor activation (in words) ([1]; 10 nM to 10 μM (four concentrations), 1% DMSO in HBSS, Fluo-8, Ex 490/Em 525 nm, 29 °C, read 60 s at 1 s intervals, average raw fluorescence units of 4 technical replicates, simple linear regression): activated and labeled the recombinant R. microplus receptor expressed in CHO-K1 cells; also recorded: elicited a dose-dependent intracellular calcium fluorescence response; also recorded: functionally activates the tick recombinant kinin receptor in BMLK3 cells; also recorded: activated the receptor in a dose response fashion, similarly to the unlabeled RK8 peptide
- fluorescence units at highest concentration, TMR-RK8 compared with RK8 (in words) ([1]; highest concentration assayed 10 µM, Fluo-8, 4 technical replicates): maximal and similar for the highest concentration assayed of 10 µM
- effect of TMR label on peptide bioactivity (in words) ([1]; overlap of confidence intervals of cell responses to TMR-RK8 and RK8): the TMR fluorescent label did not impair peptide bioactivity
- labeling of vector-only cells (in words) [2]: not labeled by either peptide
